Laboratory results taken from article PMC3914206.

Key:
panel of 442 kinases [1] = molecular target: T1, panel of 442 kinases (Homo sapiens, UniProt Q99683); type: binding; details: Compound Concentration 10 µM
T1 construct: purchased KINOMEscan
T1 sequence (Q99683 1-1374): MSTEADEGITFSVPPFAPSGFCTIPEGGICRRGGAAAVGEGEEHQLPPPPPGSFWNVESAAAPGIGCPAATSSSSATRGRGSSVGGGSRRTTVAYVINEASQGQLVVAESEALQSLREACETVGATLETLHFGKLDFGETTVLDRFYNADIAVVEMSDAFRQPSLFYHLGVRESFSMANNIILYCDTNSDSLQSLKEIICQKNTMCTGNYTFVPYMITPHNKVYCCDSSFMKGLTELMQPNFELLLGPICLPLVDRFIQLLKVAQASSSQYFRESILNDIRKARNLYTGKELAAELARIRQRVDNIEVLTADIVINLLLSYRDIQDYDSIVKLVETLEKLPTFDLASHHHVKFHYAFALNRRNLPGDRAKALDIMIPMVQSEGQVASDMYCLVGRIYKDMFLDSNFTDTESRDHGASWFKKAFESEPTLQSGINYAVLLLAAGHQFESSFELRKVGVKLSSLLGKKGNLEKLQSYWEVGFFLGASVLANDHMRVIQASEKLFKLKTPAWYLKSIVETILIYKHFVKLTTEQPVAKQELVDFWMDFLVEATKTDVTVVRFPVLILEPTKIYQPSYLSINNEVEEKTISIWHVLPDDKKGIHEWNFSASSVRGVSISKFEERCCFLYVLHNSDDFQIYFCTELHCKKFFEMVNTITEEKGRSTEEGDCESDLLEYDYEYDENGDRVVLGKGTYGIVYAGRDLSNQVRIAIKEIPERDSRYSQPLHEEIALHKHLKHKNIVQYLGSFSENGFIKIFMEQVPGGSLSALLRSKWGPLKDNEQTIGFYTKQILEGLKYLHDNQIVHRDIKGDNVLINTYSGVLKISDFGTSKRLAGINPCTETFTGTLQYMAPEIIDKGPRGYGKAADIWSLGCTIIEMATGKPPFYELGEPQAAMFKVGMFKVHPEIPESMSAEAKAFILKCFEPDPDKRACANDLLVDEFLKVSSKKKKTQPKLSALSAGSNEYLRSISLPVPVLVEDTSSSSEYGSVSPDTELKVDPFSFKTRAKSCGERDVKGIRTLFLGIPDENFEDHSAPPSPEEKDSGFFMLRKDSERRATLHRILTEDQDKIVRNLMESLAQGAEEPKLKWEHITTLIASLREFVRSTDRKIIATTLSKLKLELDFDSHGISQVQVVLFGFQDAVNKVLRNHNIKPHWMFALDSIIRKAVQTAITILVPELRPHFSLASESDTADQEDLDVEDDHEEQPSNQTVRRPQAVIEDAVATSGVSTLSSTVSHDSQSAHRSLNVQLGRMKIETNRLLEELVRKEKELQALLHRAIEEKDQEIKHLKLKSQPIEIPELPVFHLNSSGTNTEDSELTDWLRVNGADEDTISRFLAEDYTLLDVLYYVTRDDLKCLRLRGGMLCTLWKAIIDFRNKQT
From the text: (§1) We assessed the selectivity of members of this scaffold using the KINOMEscan methodology across a near comprehensive panel of 442 kinases [[18,27]].

panel of 442 kinases [2] = molecular target: T2, panel of 442 kinases (Homo sapiens, UniProt P00533, G719S); type: binding; details: Compound Concentration 10 µM
T2 construct: purchased KINOMEscan
T2 sequence (P00533 25-1210 G719S): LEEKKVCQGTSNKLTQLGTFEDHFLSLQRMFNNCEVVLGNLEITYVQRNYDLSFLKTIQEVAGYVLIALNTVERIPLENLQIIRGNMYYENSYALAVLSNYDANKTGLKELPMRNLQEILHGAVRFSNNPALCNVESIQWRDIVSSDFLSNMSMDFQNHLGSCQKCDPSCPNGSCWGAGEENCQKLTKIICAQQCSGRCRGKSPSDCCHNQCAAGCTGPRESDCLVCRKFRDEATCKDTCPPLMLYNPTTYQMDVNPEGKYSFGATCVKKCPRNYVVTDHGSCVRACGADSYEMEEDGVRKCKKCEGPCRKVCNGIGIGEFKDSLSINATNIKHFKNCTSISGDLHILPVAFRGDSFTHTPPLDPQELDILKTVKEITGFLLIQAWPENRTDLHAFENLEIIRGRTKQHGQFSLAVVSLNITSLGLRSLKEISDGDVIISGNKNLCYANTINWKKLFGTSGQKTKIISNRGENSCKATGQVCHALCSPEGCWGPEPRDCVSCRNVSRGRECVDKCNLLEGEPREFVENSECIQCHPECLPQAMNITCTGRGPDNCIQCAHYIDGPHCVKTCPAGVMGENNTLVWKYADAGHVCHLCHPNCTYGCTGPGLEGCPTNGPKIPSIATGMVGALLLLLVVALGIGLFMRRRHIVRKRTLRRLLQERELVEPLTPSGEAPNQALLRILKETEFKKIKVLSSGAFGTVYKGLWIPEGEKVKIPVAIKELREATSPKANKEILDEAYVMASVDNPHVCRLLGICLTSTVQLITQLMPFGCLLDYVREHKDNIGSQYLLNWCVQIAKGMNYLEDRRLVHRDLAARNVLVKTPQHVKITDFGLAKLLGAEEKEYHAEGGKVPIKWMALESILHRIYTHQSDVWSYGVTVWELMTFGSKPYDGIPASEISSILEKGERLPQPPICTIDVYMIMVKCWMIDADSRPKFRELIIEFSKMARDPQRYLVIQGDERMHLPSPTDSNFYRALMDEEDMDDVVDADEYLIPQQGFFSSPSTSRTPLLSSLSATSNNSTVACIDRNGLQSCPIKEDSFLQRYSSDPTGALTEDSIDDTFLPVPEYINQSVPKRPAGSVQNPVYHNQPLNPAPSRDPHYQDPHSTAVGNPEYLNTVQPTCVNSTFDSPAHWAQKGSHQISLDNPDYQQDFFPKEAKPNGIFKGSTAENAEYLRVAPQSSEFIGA
From the text: as §1

SMILES | KINOMEscan: ASK1 (panel of 442 kinases [1]) | KINOMEscan: EGFR(G719S) (panel of 442 kinases [2])
COc1cc(C(=O)N2CCC(N3CCN(C)CC3)CC2)ccc1Nc1ncc2c(n1)N(C)c1ccccc1C(=O)N2C [15 (LRRK2-IN-1)] | 100 | 86
CCOc1cc(C(=O)N2CCC(N3CCN(C)CC3)CC2)ccc1Nc1ncc2c(n1)N(C1CCCC1)c1ccccc1C(=O)N2C [Compound 26] | 100 | 96
COc1cc(C(=O)N2CCC(N3CCN(C)CC3)CC2)ccc1Nc1ncc2c(n1)N1CCc3cccc(c31)C(=O)N2C [Compound 24] |  | 81
COc1cc(C(=O)N2CCC(N3CCN(C)CC3)CC2)ccc1Nc1ncc2c(n1)N(C1CCCC1)c1ccccc1C(=O)N2C [Compound 25, 11-cyclopentyl-2-((2-methoxy-4-(4-(4-methylpiperazin-1-yl)piperidine-1-carbonyl)phenyl)amino)-5-methyl-5H-benzo[e]pyrimido[5,4-b][1,4]diazepin-6(11H)-one] | 100 | 86
